# Experimental data published in US11591323B2, “Muscarinic agonists as non-steroidal and non-opioid analgesics and methods of use thereof” (Barry University, priority 2019, dated 2023).
# Key:
# [1] = tested on: ventral tegmental area (M5); experiment: accumulation of IPX in dissipated rat ventral tegmental area; assay type: cell-based; settings: dissipated rat VTA, in words
# Procedure: Effects of compounds 6A and 7A were then measured ex vivo in dissipated rat tissues (FIG. 5). Accumulation of IPX was measured in dissipated brain cortex (rich in M1 & M3), submaxillary gland (M1 & M3), and ventral tegmental area (M5). Native tissues express about 10-times less muscarinic receptors than CHO cell lines. Accumulation of cAMP was measured in cerebellum (M2) and striatum (M4).
# Rat dissipated tissues: Suspension of dissipated tissues from rat brain cortex, cerebellum, striatum, ventral tegmental area (VTA) and submaxillary glands was prepared as described previously in supplementary methods. Adult 8-weeks old male Wistar rats were scarified by cervical dislocation in accordance with current legislative and guidelines under permission of Czech Ministry of Agriculture 16OZ23113/2017-17214. Tissues were dissected immediately. Submaxillary glands were minced by scissors. Tissues were dispersed by incubation for 15 min at 37° C. in KHB supplemented with trypsin and trituration every 5 min. Large undissipated parts were removed by cell mesh. […]
# (§1) Measurements of the production of cAMP and inositol phosphates: Levels of second messengers cAMP and inositol phosphates were determined in radiochemical chromatography assays as described previously. […] Samples were applied to alumina columns (1.5 g of alumina per column), washed with 2 ml ammonium acetate (pH=7.0) and eluted from columns with 4 ml ammonium acetate and measured by liquid scintillation spectrometry. […] After separation of water and organic phases, 0.6 ml of water phase was applied to Dowex columns (1.5 g of Dowex per column), washed by 20 ml of 60 mM ammonium formate/5 mM sodium borate buffer and eluted from columns with 4 ml of 1M ammonium formate/0.1 formic acid buffer and measured by liquid scintillation spectrometry.
# To exclude the possibility that the observed effects of compounds 6A and 7A are the result of overexpression in the heterologous system, functional response to the compounds was measured ex vivo in dissipated native rat tissues. […] Accumulation of cAMP was measured in M2-rich cerebellum and M4-rich striatum.
# M4 muscarinic receptor = biological target: T1, M4 muscarinic receptor (Homo sapiens, UniProt P08173); experiment: accumulation of cAMP at PTX-treated CHO cells expressing M4; assay type: cell-based; parameters: host or cells: CHO cells, stably transfected; settings: forskolin-stimulated and basal, in words
# T1 sequence (P08173 1-479): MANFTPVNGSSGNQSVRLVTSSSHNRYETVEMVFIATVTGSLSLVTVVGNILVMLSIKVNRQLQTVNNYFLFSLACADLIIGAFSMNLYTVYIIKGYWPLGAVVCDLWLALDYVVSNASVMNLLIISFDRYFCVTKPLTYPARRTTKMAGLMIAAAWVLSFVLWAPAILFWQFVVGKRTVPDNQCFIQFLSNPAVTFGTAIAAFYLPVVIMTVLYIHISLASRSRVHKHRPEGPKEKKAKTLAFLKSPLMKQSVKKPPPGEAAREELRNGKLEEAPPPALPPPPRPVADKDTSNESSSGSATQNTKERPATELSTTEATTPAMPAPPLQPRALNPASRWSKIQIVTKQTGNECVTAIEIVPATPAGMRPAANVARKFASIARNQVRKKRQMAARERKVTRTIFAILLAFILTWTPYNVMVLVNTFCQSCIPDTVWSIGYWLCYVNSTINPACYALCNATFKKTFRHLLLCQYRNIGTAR
# Procedure: (§2) To exclude the possibility that activation of the non-preferential Gs pathway was obscured by activation of the preferential Gi/o pathway, accumulation of cAMP was measured in CHO cells expressing M2 or M4 receptors where Gi/o G-proteins were inactivated by pertussis toxin (PTX) treatment (FIG. 4).
# Cell culture and membrane preparation: Chinese hamster ovary (CHO) cells stably transfected with the genes of individual human variants of muscarinic receptors were purchased from Missouri S&T cDNA Resource Center (Rolla, Mo., USA). Fresh primary cell culture of smooth muscle cells (SMC) from rat aorta prepared as previously described was kindly provided by Dr. Lucie Bačáková. Primary culture of SMCs was grown to confluency in 75 cm^2 flasks in Dulbecco's modified Eagle's medium supplemented with 10% fetal bovine serum. Up to 6-times, 2 million of cells were sub-cultured. […]
# as §1
# as §2, with “[…]” for “Gs”, “11). […]” for “4).”
SMILES,accumulation of IPX [1],change in accumulation of cAMP (M4 muscarinic receptor)
"C[N+](C)(C)CCOC(N)=O [carbachol, reference compound]",profound accumulation of IPX,about two-fold increase
"C1=CCN(Cc2cccs2)CC1.Cl [Compound 6A, 1-[(thiophen-2-yl)methyl]-1,2,3,6-tetrahydropyridin-1-ium chloride]",negligible increase in IPX,did not change cAMP levels
"C[N+]1(Cc2cccs2)CC=CCC1.[I-] (stereo not drawn) [Compound 7A, 1-methyl-1-[(thiophen-2-yl)methyl]-1,2,3,6-tetrahydropyridin-1-ium iodide]",negligible increase in IPX,did not change cAMP levels
